Reference: PubChem BioAssay (NCI)
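These data come from cells grown in 96-well plates and exposed to compound for 48 hours at five concentrations. TGI is the concentration that stops growth completely.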

Columns and labels:
Assay in all cases: growth of human tumour cells (NCI), 48 h
[1] = system: MCF7 breast
[2] = system: CCRF-CEM leukemia
[3] = system: BT-549 breast
[4] = system: M14 melanoma
[5] = system: OVCAR-4 ovarian
[6] = system: MDA-MB-231 breast
[7] = system: HOP-92 NSCLC
[8] = system: SK-MEL-28 melanoma
[9] = system: MALME-3M melanoma
[10] = system: A549 NSCLC
[11] = system: MOLT-4 leukemia
[12] = system: NCI-H522 lung
[13] = system: UACC-62 melanoma
[14] = system: NCI-H460 lung
[15] = system: 786-0 renal
[16] = system: SN12C renal
[17] = system: SNB-75 CNS
[18] = system: SF-295 CNS
[19] = system: UACC-257 melanoma
[20] = system: CAKI-1 renal
[21] = system: NCI-H23 lung
[22] = system: TK-10 renal
[23] = system: OVCAR-5 ovarian
[24] = system: SNB-19 CNS
[25] = system: SF-268 CNS
[26] = system: KM12 colon
[27] = system: K-562 leukemia
[28] = system: SR leukemia
[29] = system: ACHN renal
[30] = system: SK-OV-3 ovarian
[31] = system: MDA-N
[32] = system: HS 578T breast
[33] = system: HL-60(TB) leukemia
[34] = system: HCT-116 colon
[35] = system: UO-31 renal
[36] = system: HT29 colon
[37] = system: MDA-MB-435
[38] = system: OVCAR-8 ovarian
[39] = system: SK-MEL-5 melanoma
[40] = system: COLO 205 colon
[41] = system: SW-620 colon
[42] = system: HCT-15 colon
[43] = system: PC-3 prostate
[44] = system: EKVX NSCLC
[45] = system: NCI/ADR-RES ovarian
[46] = system: SK-MEL-2 melanoma
[47] = system: HCC-2998 colon
[48] = system: LOX IMVI melanoma
[49] = system: A498 renal
[50] = system: OVCAR-3 ovarian
[51] = system: HOP-62 NSCLC
[52] = system: IGROV1 ovarian
[53] = system: U251 CNS
[54] = system: NCI-H226 lung
[55] = system: RPMI-8226 leukemia
[56] = system: T-47D breast
[57] = system: DU-145 prostate

Compound `CC(C)(CN1CCCCC1)C(/C=C/c1ccccc1)=N\NC(=O)N/N=C(/C=C/c1ccccc1)C(C)(C)CN1CCCCC1` has a TGI [1] of 3.53 µM, a TGI [2] of 3.37 µM and a TGI [3] of 3.23 µM. It also gave a TGI [4] of 3.19 µM, a TGI [5] of 14.1 µM and a TGI [6] of 2.81 µM. It also gave a TGI [7] of 3.76 µM, a TGI [8] of 3.07 µM and a TGI [9] of 3.7 µM. The TGI [10] was 6.12 µM, the TGI [11] was 4.02 µM and the TGI [12] was 3.35 µM. For the same compound, the TGI [13] was 2.89 µM, the TGI [14] was 2.67 µM and the TGI [15] was 2.78 µM. The TGI [16] was 4.03 µM, the TGI [17] was 3.05 µM and the TGI [18] was 3.09 µM. The TGI [19] was 3.1 µM, the TGI [20] was 5.61 µM and the TGI [21] was 4.68 µM. The TGI [22] was 3.36 µM, the TGI [23] was 15.4 µM and the TGI [24] was 3.95 µM. For the same compound, the TGI [25] was 8.94 µM, the TGI [26] was 3.86 µM and the TGI [27] was 2.81 µM. For the same compound, the TGI [28] was 2.08 µM, the TGI [29] was 11.9 µM and the TGI [30] was 9.52 µM. The TGI [31] was 3.01 µM, the TGI [32] was 5.92 µM and the TGI [33] was 2.86 µM. The TGI [34] was 2.93 µM, the TGI [35] was 2.37 µM and the TGI [36] was 2.53 µM. The TGI [37] was 2.86 µM, the TGI [38] was 3.38 µM and the TGI [39] was 3.1 µM. The TGI [40] was 2.81 µM, the TGI [41] was 3.13 µM and the TGI [42] was 2.72 µM. For the same compound, the TGI [43] was 7.7 µM, the TGI [44] was 20.7 µM and the TGI [45] was 4.01 µM. It also gave a TGI [46] of 3.73 µM, a TGI [47] of 1.86 µM and a TGI [48] of 3.32 µM. It also gave a TGI [49] of 2.95 µM, a TGI [50] of 6.82 µM and a TGI [51] of 3.71 µM. The TGI [52] was 6.07 µM, the TGI [53] was 3 µM and the TGI [54] was 5.27 µM. The TGI [55] was 3.96 µM.

`C=C(CCOC)CCC1CCCCC(=C)[C@H]1O` (stereo partly drawn) gave a TGI [1] greater than 100 µM, a TGI [2] greater than 100 µM and a TGI [4] greater than 100 µM. The TGI [5] was greater than 100 µM, the TGI [6] was greater than 100 µM and the TGI [7] was greater than 100 µM. The TGI [8] was greater than 100 µM, the TGI [10] was greater than 100 µM and the TGI [11] was greater than 100 µM. For the same compound, the TGI [12] was greater than 100 µM, the TGI [13] was greater than 100 µM and the TGI [14] was greater than 100 µM. The TGI [15] was greater than 100 µM, the TGI [16] was greater than 100 µM and the TGI [56] was greater than 100 µM. For the same compound, the TGI [17] was greater than 100 µM, the TGI [18] was greater than 100 µM and the TGI [19] was greater than 100 µM. It also gave a TGI [20] greater than 100 µM, a TGI [21] greater than 100 µM and a TGI [22] greater than 100 µM. The TGI [23] was greater than 100 µM, the TGI [24] was greater than 100 µM and the TGI [25] was greater than 100 µM. It also gave a TGI [26] greater than 100 µM, a TGI [27] greater than 100 µM and a TGI [28] greater than 100 µM. It also gave a TGI [29] greater than 100 µM, a TGI [30] greater than 100 µM and a TGI [31] greater than 100 µM. It also gave a TGI [32] greater than 100 µM, a TGI [33] greater than 100 µM and a TGI [34] greater than 100 µM. For the same compound, the TGI [35] was greater than 100 µM, the TGI [36] was greater than 100 µM and the TGI [37] was greater than 100 µM. It also gave a TGI [38] greater than 100 µM, a TGI [39] greater than 100 µM and a TGI [40] greater than 100 µM. The TGI [41] was greater than 100 µM, the TGI [42] was greater than 100 µM and the TGI [43] was greater than 100 µM. For the same compound, the TGI [44] was greater than 100 µM, the TGI [45] was greater than 100 µM and the TGI [46] was greater than 100 µM. For the same compound, the TGI [49] was greater than 100 µM, the TGI [50] was greater than 100 µM and the TGI [51] was greater than 100 µM. The TGI [52] was greater than 100 µM, the TGI [53] was greater than 100 µM and the TGI [54] was greater than 100 µM. For the same compound, the TGI [55] was greater than 100 µM and the TGI [57] was greater than 100 µM.
